In ChEMBL document CHEMBL4017540, “Synthesis of Potent and Selective Inhibitors of Aldo-Keto Reductase 1B10 and Their Efficacy against Proliferation, Metastasis, and Cisplatin Resistance of Lung Cancer Cells” (J Med Chem, 2017):
Numbering of substitutions follows the chain as printed.

How the values were obtained:
[1] = target: T1, Aldo-keto reductase family 1 member B1 (Homo sapiens, UniProt P15121); assay: Inhibition of recombinant human AKR1B1 using pyridine-3-aldehyde as substrate
[2] = target: T2, Aldo-keto reductase family 1 member B10 (Homo sapiens, UniProt O60218); assay: Inhibition of recombinant human AKR1B10 using pyridine-3-aldehyde as substrate
T2 sequence (O60218 whole entry): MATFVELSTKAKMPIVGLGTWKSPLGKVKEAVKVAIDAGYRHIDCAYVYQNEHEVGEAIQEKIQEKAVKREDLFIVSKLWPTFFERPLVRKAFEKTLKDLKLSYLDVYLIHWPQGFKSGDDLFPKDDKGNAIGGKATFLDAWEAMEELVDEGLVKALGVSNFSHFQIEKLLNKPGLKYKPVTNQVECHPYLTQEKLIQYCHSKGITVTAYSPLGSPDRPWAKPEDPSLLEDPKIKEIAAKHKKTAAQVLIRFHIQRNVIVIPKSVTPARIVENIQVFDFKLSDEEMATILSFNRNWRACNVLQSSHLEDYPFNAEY

[3] = target: T3, Aldo-keto reductase family 1 member C4 (Homo sapiens, UniProt P17516); assay: Inhibition of recombinant human AKR1C4 using S-tetralol as substrate
T3 sequence (P17516 whole entry): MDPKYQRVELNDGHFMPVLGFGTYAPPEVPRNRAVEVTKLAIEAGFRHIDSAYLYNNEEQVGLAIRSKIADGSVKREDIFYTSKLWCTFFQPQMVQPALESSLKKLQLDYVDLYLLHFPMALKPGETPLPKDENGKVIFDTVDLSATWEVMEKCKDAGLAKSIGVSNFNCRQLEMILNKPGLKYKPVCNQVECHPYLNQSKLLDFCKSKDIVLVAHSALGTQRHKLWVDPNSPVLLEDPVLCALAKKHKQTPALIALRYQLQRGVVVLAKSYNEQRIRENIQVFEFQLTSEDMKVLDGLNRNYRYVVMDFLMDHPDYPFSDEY

[4] = target: T4, Aldo-keto reductase family 1 member A1 (Homo sapiens, UniProt P14550); assay: Inhibition of recombinant human AKR1A1 using pyridine-3-aldehyde as substrate
T4 sequence (P14550 whole entry): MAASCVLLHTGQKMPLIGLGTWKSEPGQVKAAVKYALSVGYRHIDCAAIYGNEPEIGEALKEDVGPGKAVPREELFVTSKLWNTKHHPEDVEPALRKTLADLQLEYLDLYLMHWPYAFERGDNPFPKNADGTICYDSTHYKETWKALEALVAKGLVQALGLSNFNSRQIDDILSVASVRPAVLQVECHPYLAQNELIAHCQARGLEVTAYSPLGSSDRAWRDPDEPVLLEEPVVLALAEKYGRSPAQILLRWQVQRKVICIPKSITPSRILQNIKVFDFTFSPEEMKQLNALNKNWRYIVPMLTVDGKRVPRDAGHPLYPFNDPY

[5] = target: T5, Carbonyl reductase [NADPH] 1 (Homo sapiens, UniProt P16152); assay: Inhibition of recombinant human CBR1 using isatin as substrate
T5 sequence (P16152 whole entry): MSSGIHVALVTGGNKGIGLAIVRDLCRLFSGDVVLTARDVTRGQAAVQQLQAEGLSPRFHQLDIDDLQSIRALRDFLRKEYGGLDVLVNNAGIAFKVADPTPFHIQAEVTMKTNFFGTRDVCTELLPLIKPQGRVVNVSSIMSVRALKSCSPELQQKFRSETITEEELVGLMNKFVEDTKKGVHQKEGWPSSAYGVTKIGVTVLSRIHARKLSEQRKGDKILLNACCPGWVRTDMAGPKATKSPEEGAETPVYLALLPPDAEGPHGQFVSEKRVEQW

[6] = target: T6, Aldo-keto reductase family 1 member C2 (Homo sapiens, UniProt P52895); assay: Inhibition of recombinant human AKR1C2 using S-tetralol as substrate
T6 sequence (P52895 whole entry): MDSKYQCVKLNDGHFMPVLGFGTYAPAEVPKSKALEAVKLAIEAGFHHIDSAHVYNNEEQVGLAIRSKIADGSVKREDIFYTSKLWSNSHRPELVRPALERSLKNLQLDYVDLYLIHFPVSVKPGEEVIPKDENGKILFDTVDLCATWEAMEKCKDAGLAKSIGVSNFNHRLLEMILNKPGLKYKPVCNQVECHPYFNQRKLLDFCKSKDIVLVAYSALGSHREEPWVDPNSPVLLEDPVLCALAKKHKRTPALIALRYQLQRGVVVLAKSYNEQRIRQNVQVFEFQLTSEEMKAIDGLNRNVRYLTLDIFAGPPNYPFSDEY

[7] = target: T7, Aldo-keto reductase family 1 member C1 (Homo sapiens, UniProt Q04828); assay: Inhibition of recombinant human AKR1C1 using S-tetralol as substrate
T7 sequence (Q04828 whole entry): T6 sequence (P52895 whole entry) with V38T, H47R, V54L, S87C, M151V, H170R, L172Q

[8] = Competitive inhibition of recombinant human AKR1B10 Val301Leu mutant in presence of geraniol as substrate by Lineweaver-Burk plot method
[9] = Competitive inhibition of recombinant human AKR1B10 Gln303Ser mutant in presence of geraniol as substrate by Lineweaver-Burk plot method
[10] = Competitive inhibition of recombinant human AKR1B10 Trp220Tyr mutant in presence of geraniol as substrate by Lineweaver-Burk plot method
[11] = Competitive inhibition of recombinant human AKR1B10 Lys125Leu mutant in presence of geraniol as substrate by Lineweaver-Burk plot method
[12] = target: T8, Aldo-keto reductase family 1 member C3 (Homo sapiens, UniProt P42330); assay: Inhibition of recombinant human AKR1C3 using S-tetralol as substrate
T8 sequence (P42330 whole entry): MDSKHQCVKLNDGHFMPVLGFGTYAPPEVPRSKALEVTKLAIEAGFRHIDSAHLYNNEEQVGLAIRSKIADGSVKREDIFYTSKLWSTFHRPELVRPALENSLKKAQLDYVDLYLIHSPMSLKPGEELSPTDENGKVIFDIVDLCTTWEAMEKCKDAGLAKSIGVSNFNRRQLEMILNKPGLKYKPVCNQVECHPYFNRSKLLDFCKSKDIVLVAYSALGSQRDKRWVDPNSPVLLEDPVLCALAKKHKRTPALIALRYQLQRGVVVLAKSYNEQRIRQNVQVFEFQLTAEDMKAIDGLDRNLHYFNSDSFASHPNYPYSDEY

[13] = target: T2, Aldo-keto reductase family 1 member B10; assay: Competitive inhibition of recombinant human AKR1B10 in presence of geraniol as substrate by Lineweaver-Burk plot method
[14] = target: T1, Aldo-keto reductase family 1 member B1; assay: Inhibition of human recombinant AKR1B1 (1 to 316 residues) expressed in Escherichia coli using pyridine-3-aldehyde as substrate
[15] = target: T2, Aldo-keto reductase family 1 member B10; assay: Inhibition of human recombinant AKR1B10 (1 to 316 residues) expressed in Escherichia coli using pyridine-3-aldehyde as substrate
[16] = target: T2, Aldo-keto reductase family 1 member B10; assay: Inhibition of AKR1B10 (unknown origin)
[17] = target: T1, Aldo-keto reductase family 1 member B1; assay: Inhibition of AKR1B1 (unknown origin)
[18] = target: T2, Aldo-keto reductase family 1 member B10; assay: Inhibition of recombinant human intestinal N-terminal 6-His-tagged AKR1B10 expressed in Escherichia coli BL21 (DE3) pLysS cells using pyridine-3-aldehyde as substrate by fluorescence assay
[19] = target: T1, Aldo-keto reductase family 1 member B1; assay: Inhibition of recombinant human AKR1B1 using pyridine-3-aldehyde as substrate by fluorescence assay

| SMILES | IC50 [1] [nM] | IC50 [2] [nM] | also measured |
| --- | --- | --- | --- |
| O=C(NCCc1ccc(O)cc1)c1cc2ccc(O)cc2oc1=O | 98 | 20 |  |
| O=C(NCCCc1cccc(F)c1)c1cc2ccc(O)cc2oc1=O | 340 | 6 |  |
| Cc1ccc(CCCNC(=O)c2cc3ccc(O)cc3oc2=O)cc1 | 200 | 7 |  |
| O=C(NCCCc1cc(F)cc(F)c1)c1cc2ccc(O)cc2oc1=O | 320 | 7.8 |  |
| O=C(NCCCCc1ccc(O)cc1)c1cc2ccc(O)cc2oc1=O | 314 | 11 |  |
| O=C(NCCCc1cccc(O)c1)c1cc2ccc(O)cc2oc1=O | 180 | 8.3 |  |
| O=C(NCCCc1ccc(O)cc1)c1cc2cccc(O)c2oc1=O | 9500 | 1500 |  |
| O=C(NCCCc1ccc(O)cc1)c1cc2ccc(O)cc2oc1=O | 204 | 4.2 | IC50 [3]: 820 nM; IC50 [4]: 1500 nM; IC50 [5]: 4200 nM; IC50 [6]: 970 nM; IC50 [7]: 950 nM; Ki [8]: 9.8 nM; Ki [9]: 2.5 nM; Ki [10]: 14 nM; Ki [11]: 6.9 nM; IC50 [12]: 1600 nM; Ki [13]: 2.3 nM |
| C[C@@]12CCC[C@H]1[C@@H]1C[C@@H](O)[C@@]3(O)C[C@@H](O)CC[C@]3(CO)[C@H]1CC2 |  |  | IC50 [14]: > 100000 nM; IC50 [15]: 830 nM |
| COc1ccc(CCCNC(=O)c2cc3ccc(O)cc3oc2=O)cc1 | 390 | 11 |  |
| COc1ccc(/N=c2\oc3cc(O)ccc3cc2C(=O)NCCCc2cccc(O)c2)cc1 | 15 | 7.5 |  |
| O=C(NCCCc1ccc(F)cc1)c1cc2ccc(O)cc2oc1=O | 277 | 3.5 | IC50 [3]: 350 nM; IC50 [4]: 1700 nM; IC50 [5]: 1100 nM; IC50 [6]: 610 nM; IC50 [7]: 12000 nM; IC50 [12]: 470 nM |
| O=C(NCCCc1ccc(O)cc1)c1cc2ccccc2oc1=O | > 10000 | 2700 |  |
| O=C(NCCCc1ccccc1O)c1cc2ccc(O)cc2oc1=O | 220 | 6.4 |  |
| O=C(/C=C/c1ccc(O)cc1)CC(=O)/C=C/c1ccc(O)cc1 [BISDEMETHOXYCURCUMIN] |  |  | IC50 [16]: 60 nM; IC50 [17]: 5100 nM |
| C[C@H](CCC(=O)O)[C@H]1CC[C@H]2[C@@H]3CC[C@@H]4C[C@@H](O)CC[C@]4(C)[C@H]3CC[C@]12C [ISOLITHOCHOLIC ACID] |  |  | IC50 [18]: 27 nM; IC50 [19]: 6900 nM |
